For assay [1], the target named is T1, IL-17A : IL-17RA binding (Homo sapiens, UniProt Q16552, K93Q).
T1 construct: Name: IL-17A-Flag
The experiment in a line: IL-17A(FLAG-tagged):IL-17RA(His-tagged) binding disruption Eu-HTRF assay, Protocol 1. The following applies: FLAG-IL-17A 2.5 nM at 2x final concentration; average if tested more than once. An outline of the steps: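 IC50 came from a one-site competition fit of the acceptor/donor (665/620 nm) HTRF ratio. His-tagged IL-17RA, Eu-anti-FLAG and D2-anti-His were added after a 1 h rt compound preincubation with FLAG-tagged IL-17A dimer in PBS/0.01% Triton X-100, followed by 2 h at rt before reading.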
In general terms: TR-FRET usually uses a lanthanide donor and a delayed reading to cut background.

Assay [2] relates to IL-17A-induced G-CSF production in human normal keratinocyte (NHK). The experiment in a line: NHK assay: IL-17A-induced G-CSF production in normal human keratinocytes. The following applies: 24 h, IL-17A 5 ng/mL, average if tested more than once. The format is cell-based. An outline of the steps:
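Compound titrations are first mixed with recombinant human IL-17A for 1 h at room temperature. The mixture goes onto adult normal human keratinocytes (final IL-17A 5 ng/mL, 5% FBS, 0.2% DMSO) for 24 h at 37 °C. Secreted G-CSF is then measured by HTRF and IC50 fitted.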

This is an account of results in patent US20240376085A1 (Janssen Pharmaceutica NV, priority 2021, published 2024).

T1 sequence (Q16552 with tags, fused parts or gaps K93Q): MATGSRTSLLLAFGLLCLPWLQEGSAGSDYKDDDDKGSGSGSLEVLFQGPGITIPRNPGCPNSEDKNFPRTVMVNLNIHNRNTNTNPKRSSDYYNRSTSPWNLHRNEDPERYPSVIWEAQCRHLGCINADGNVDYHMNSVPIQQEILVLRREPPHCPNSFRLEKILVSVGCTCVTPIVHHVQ

Usually IC50 stands for the concentration needed to halve the response being measured. The low end stands for greater potency, the high end for weaker potency. For the compound `C[C@@H](NC(=O)CC(C(F)(F)F)C(F)(F)F)c1ccc2[nH]c([C@@H](NC(=O)c3ccnn3CC(F)(F)F)C3CCC(F)(F)CC3)nc2c1` [Example 129, N—((S)-(4,4-Difluorocyclohexyl)(5-((R)-1-(4,4,4-trifluoro-3-(trifluoromethyl)butanamido)ethyl)-1H-benzo[d]imidazol-2-yl)methyl)-1-(2,2,2-trifluoroethyl)-1H-pyrazole-5-carboxamide], the half-maximal inhibitory concentration (IC50) in assay [1] is over 100 nM; in assay [2] (Homo sapiens, Keratinocyte), 50 to 100 nM.

Take `CC(C)n1nccc1C(=O)NC(CO[C@H](C)C(F)(F)F)c1nc2ccc([C@H](NC(=O)CC3CC(F)(F)C3)C3CC3)cc2[nH]1` (single isomer, unassigned) [Example 157, N—((R*)-1-(6-((R)-Cyclopropyl(2-(3,3-difluorocyclobutyl)acetamido)methyl)-1H-benzo[d]imidazol-2-yl)-2-(((R)-1,1,1-trifluoropropan-2-yl)oxy)ethyl)-1-isopropyl-1H-pyrazole-5-carboxamide]: the IC50 in assay [1] is under 50 nM; in assay [2] (Homo sapiens, Keratinocyte), 50 to 100 nM.

On to `CC(C)n1ncc(F)c1C(=O)NC(CC(C)(C)C(F)(F)F)c1nc2cc([C@@H](C)NC(=O)CCC(F)(F)F)ccc2[nH]1` (single isomer, unassigned) [Example 194, 4-Fluoro-1-isopropyl-N—((S*)-4,4,4-trifluoro-3,3-dimethyl-1-(5-((R)-1-(4,4,4-trifluorobutanamido)ethyl)-1H-benzo[d]imidazol-2-yl)butyl)-1H-pyrazole-5-carboxamide], for which the IC50 was over 100 nM in assay [1] and over 100 nM in assay [2] (Homo sapiens, Keratinocyte).

Regarding `C[C@@H](NC(=O)CCC(F)(F)F)c1ccc2nc([C@@H](NC(=O)c3cnn(C)c3C(F)(F)F)C3CCC(F)(F)CC3)[nH]c2c1` [Example 58, N—((S)-(4,4-Difluorocyclohexyl)(6-((R)-1-(4,4,4-trifluorobutanamido)ethyl)-1H-benzo[d]imidazol-2-yl)methyl)-1-methyl-5-(trifluoromethyl)-1H-pyrazole-4-carboxamide], the IC50 is over 100 nM in assay [1] and over 100 nM in assay [2] (Homo sapiens, Keratinocyte).

In the case of `C[C@@H](NC(=O)CCC(F)(F)F)c1ccc2[nH]c([C@@H](NC(=O)c3cn(CC4CCC4)nc3C(N)=O)C3CCC(F)(F)CC3)nc2c1` [Example 89, 1-(Cyclobutylmethyl)-N^4—((S)-(4,4-difluorocyclohexyl)(5-((R)-1-(4,4,4-trifluorobutanamido)ethyl)-1H-benzo[d]imidazol-2-yl)methyl)-1H-pyrazole-3,4-dicarboxamide], the 50% inhibitory concentration (IC50) was over 100 nM in assay [1] and over 100 nM in assay [2] (Homo sapiens, Keratinocyte).

With `Cc1nonc1C(=O)N[C@@H](CC(C)(C)C(F)(F)F)c1nc2ccc([C@H](NC(=O)CC3CC3(F)F)C3CC3)cc2[nH]1` (single isomer, unassigned) [Example 184, N—((S)-1-(6-((R)-Cyclopropyl(2-((S*)-2,2-difluorocyclopropyl)acetamido)methyl)-1H-benzo[d]imidazol-2-yl)-4,4,4-trifluoro-3,3-dimethylbutyl)-4-methyl-1,2,5-oxadiazole-3-carboxamide], the 50% inhibitory concentration (IC50) in assay [1] is 50 to 100 nM; in assay [2], over 100 nM.

In the case of `C[C@@H](NC(=O)CC(C)(C)C)c1ccc2[nH]c([C@@H](NC(=O)c3ccnn3C)C3CCC(F)(F)CC3)nc2c1` [Example 117, N—((S)-(4,4-Difluorocyclohexyl)(5-((R)-1-(3,3-dimethylbutanamido)ethyl)-1H-benzo[d]imidazol-2-yl)methyl)-1-methyl-1H-pyrazole-5-carboxamide], the IC50 was over 100 nM in assay [1] and over 100 nM in assay [2] (Homo sapiens, Keratinocyte).

For `C[C@@H](NC(=O)CCC(F)(F)F)c1ccc2[nH]c([C@@H](NC(=O)c3nc(CCC(F)(F)F)cs3)C3CCC(F)(F)CC3)nc2c1` [Example 201, N—((S)-(4,4-Difluorocyclohexyl)(5-((R)-1-(4,4,4-trifluorobutanamido)ethyl)-1H-benzo[d]imidazol-2-yl)methyl)-4-(3,3,3-trifluoropropyl) thiazole-2-carboxamide], the IC50 in assay [1] is over 100 nM; in assay [2] (Homo sapiens, Keratinocyte), over 100 nM.

Take `O=C(CC1CC(F)(F)C1)N[C@@H](c1ccc2nc([C@@H](NC(=O)c3nonc3C3CC3)[C@@H]3CCCC(F)(F)C3)[nH]c2c1)C1CC1` [Example 171, 4-Cyclopropyl-N—((S)-(6-((R)-cyclopropyl(2-(3,3-difluorocyclobutyl)acetamido)methyl)-1H-benzo[d]imidazol-2-yl)((R)-3,3-difluorocyclohexyl)methyl)-1,2,5-oxadiazole-3-carboxamide]: the IC50 in assay [1] was 50 to 100 nM; in assay [2] (Homo sapiens, Keratinocyte) it was under 50 nM.

Consider `C[C@@H](NC(=O)CCC(F)(F)F)c1ccc2nc([C@@H](NC(=O)c3cnn(C)c3C(F)F)C3CCC(F)(F)CC3)[nH]c2c1` [Example 59, N—((S)-(4,4-Difluorocyclohexyl)(6-((R)-1-(4,4,4-trifluorobutanamido)ethyl)-1H-benzo[d]imidazol-2-yl)methyl)-5-(difluoromethyl)-1-methyl-1H-pyrazole-4-carboxamide], for which the IC50 in assay [1] was over 100 nM; in assay [2] (Homo sapiens, Keratinocyte), over 100 nM.

Regarding `C[C@@H](NC(=O)CCC(F)(F)F)c1ccc2[nH]c([C@@H](NC(=O)c3ncnn3CC3CC3)C3CCC(F)(F)CC3)nc2c1` [Example 30, 2-(Cyclopropylmethyl)-N—[(S)-(4,4-difluorocyclohexyl)-[6-[(1R)-1-(4,4,4-trifluorobutanoylamino)ethyl]-1H-benzimidazol-2-yl]methyl]-1,2,4-triazole-3-carboxamide], the half-maximal inhibitory concentration (IC50) in assay [1] is 50 to 100 nM; in assay [2] (Homo sapiens, Keratinocyte), over 100 nM.

For the compound `C[C@@H](NC(=O)CCC(F)(F)F)c1ccc2nc([C@@H](NC(=O)c3cnnn3CC3CCC3)C3CCC(F)(F)CC3)[nH]c2c1` [Example 63, 1-(Cyclobutylmethyl)-N—((S)-(4,4-difluorocyclohexyl)(6-((R)-1-(4,4,4-trifluorobutanamido)ethyl)-1H-benzo[d]imidazol-2-yl)methyl)-1H-1,2,3-triazole-5-carboxamide], the IC50 lay in the range of 50 to 100 nM in assay [1] and 50 to 100 nM in assay [2] (Homo sapiens, Keratinocyte).

Turning to `CC(C)n1nccc1C(=O)N[C@@H](CC1CC2(C1)CC(F)(F)C2)c1nc2ccc([C@H](NC(=O)CC3CC(F)(F)C3)C3CC3)cc2[nH]1` (stereo partly drawn) [Example 148, N—((S)-1-(6-((R)-Cyclopropyl(2-(3,3-difluorocyclobutyl)acetamido)methyl)-1H-benzo[d]imidazol-2-yl)-2-(6,6-difluorospiro[3.3]heptan-2-yl)ethyl)-1-isopropyl-1H-pyrazole-5-carboxamide], the IC50 in assay [1] was over 100 nM; in assay [2] (Homo sapiens, Keratinocyte) it was over 100 nM.

As for `CC(CC(=O)N[C@@H](c1ccc2[nH]c([C@H](COC(C)(C)C(F)(F)F)NC(=O)c3nonc3C3CC3)nc2c1)C1CC1)C(F)F` (single isomer, unassigned) [Example 176, 4-Cyclopropyl-N—((R)-1-(5-((R)-cyclopropyl((S*)-4,4-difluoro-3-methylbutanamido)methyl)-1H-benzo[d]imidazol-2-yl)-2-((1,1,1-trifluoro-2-methylpropan-2-yl)oxy)ethyl)-1,2,5-oxadiazole-3-carboxamide], the 50% inhibitory concentration (IC50) was under 50 nM in assay [1] and over 100 nM in assay [2].

With `C[C@@H](NC(=O)CCC(F)(F)F)c1ccc2[nH]c([C@@H](NC(=O)c3ccnn3CC(F)(F)F)C3CCC(F)(F)CC3)nc2c1` [Example 128, N—((S)-(4,4-Difluorocyclohexyl)(5-((R)-1-(4,4,4-trifluorobutanamido)ethyl)-1H-benzo[d]imidazol-2-yl)methyl)-1-(2,2,2-trifluoroethyl)-1H-pyrazole-5-carboxamide], the IC50 in assay [1] was over 100 nM; in assay [2] (Homo sapiens, Keratinocyte) it was over 100 nM.

As for `CC(C)n1nccc1C(=O)N[C@@H](CC(C)(C)C(F)(F)F)c1nc2ccc([C@H](NC(=O)CC3CC(F)(F)C3)C3CC3)cc2[nH]1` [Example 177, N—((S)-1-(6-((R)-Cyclopropyl(2-(3,3-difluorocyclobutyl)acetamido)methyl)-1H-benzo[d]imidazol-2-yl)-4,4,4-trifluoro-3,3-dimethylbutyl)-1-isopropyl-1H-pyrazole-5-carboxamide], the IC50 is over 100 nM in assay [1] and under 50 nM in assay [2] (Homo sapiens, Keratinocyte).

Take `C[C@@H](NC(=O)CCC(F)(F)F)c1ccc2[nH]c([C@@H](NC(=O)[C@@H]3C[C@@H]3F)C3CCC(F)(F)CC3)nc2c1` [Example 101, (1S,2S)—N—((S)-(4,4-Difluorocyclohexyl)(5-((R)-1-(4,4,4-trifluorobutanamido)ethyl)-1H-benzo[d]imidazol-2-yl)methyl)-2-fluorocyclopropane-1-carboxamide]: the half-maximal inhibitory concentration (IC50) in assay [1] was over 100 nM; in assay [2] (Homo sapiens, Keratinocyte) it was over 100 nM.

As for `C[C@@H](NC(=O)CCC(F)(F)F)c1ccc2[nH]c([C@@H](NC(=O)c3cc(CCC(F)(F)F)no3)C3CCC(F)(F)CC3)nc2c1` [Example 215, N—((S)-(4,4-Difluorocyclohexyl)(5-((R)-1-(4,4,4-trifluorobutanamido)ethyl)-1H-benzo[d]imidazol-2-yl)methyl)-3-(3,3,3-trifluoropropyl)isoxazole-5-carboxamide], the IC50 in assay [1] is over 100 nM; in assay [2] (Homo sapiens, Keratinocyte), over 100 nM.

As to `CC(C)n1cnc(C(=O)N[C@H](c2nc3cc([C@@H](C)NC(=O)CCC(F)(F)F)ccc3[nH]2)C2CCC(F)(F)CC2)n1` [Example 39, N—[(S)-(4,4-Difluorocyclohexyl)-[6-[(1R)-1-(4,4,4-trifluorobutanoylamino)ethyl]-1H-benzimidazol-2-yl]methyl]-1-isopropyl-1,2,4-triazole-3-carboxamide], the concentration for half-maximal inhibition (IC50) in assay [1] was over 100 nM; in assay [2] (Homo sapiens, Keratinocyte), over 100 nM.
